The compounds below were run against T1, N-formyl peptide receptor 2 (Homo sapiens, UniProt P25090) (assay: FPRL1 binding inhibitor potency, dose response, cell-based, FPR counter-screen, fluorescent ligand (AID 520)). Conditions: not given.
T1 sequence (P25090 whole entry): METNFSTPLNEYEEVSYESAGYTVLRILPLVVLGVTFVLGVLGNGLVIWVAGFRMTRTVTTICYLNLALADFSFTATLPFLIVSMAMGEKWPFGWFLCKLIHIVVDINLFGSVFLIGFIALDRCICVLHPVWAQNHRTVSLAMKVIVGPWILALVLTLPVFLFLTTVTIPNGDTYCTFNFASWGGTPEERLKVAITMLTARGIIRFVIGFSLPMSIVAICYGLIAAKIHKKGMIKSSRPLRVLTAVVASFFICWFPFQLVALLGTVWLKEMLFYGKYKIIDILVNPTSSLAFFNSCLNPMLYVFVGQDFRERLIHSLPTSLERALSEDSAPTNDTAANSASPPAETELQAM

Row | IC50 [µM] | Ki [µM] | Compound
1 | > 66.7 | > 40.3 | CCOc1cccc(C(=O)C2C(=O)C(=O)N(Cc3cccnc3)C2c2ccco2)c1 (centres undefined) [(4Z)-4-[(3-ethoxyphenyl)-hydroxymethylidene]-5-(2-furanyl)-1-(3-pyridinylmethyl)pyrrolidine-2,3-dione]
2 | > 66.7 | > 40.3 | COCCCN1C(=O)C(=O)C(C(=O)c2ccc3c(c2)CC(C)O3)C1c1cccnc1 (centres undefined) [(4E)-1-(3-methoxypropyl)-4-[(2-methyl-2,3-dihydro-1-benzofuran-5-yl)-oxidanyl-methylidene]-5-pyridin-3-yl-pyrrolidine-2,3-dione]
3 | > 66.7 |  | COc1cc2c3c(c1)/C(=C1/SC(NC(C)=O)=NC1=O)C(=O)N3C(C)(C)C=C2C [N-[5-(8-methoxy-4,4,6-trimethyl-2-oxo-4H-pyrrolo[3,2,1-ij]quinolin-1(2H)-ylidene)-4-oxo-4,5-dihydro-1,3-thiazol-2-yl]acetamide]
4 | > 66.7 |  | CCCC(=O)Nc1c2c(nn1-c1ccc(OC)cc1)C[S+]([O-])C2 (centres undefined) [MLS000086302]
5 | > 66.7 |  | C=CCn1c(SCCCC)nc(O)cc1=O [1-allyl-2-(butylthio)-6-hydroxy-pyrimidin-4-one]
6 | > 66.7 |  | CCC(C)(C(=O)NC1CCCC1)N(CC1CCCO1)C(=O)c1ccc2c(c1)OCO2 (centres undefined) [MLS000095004]
7 | > 66.7 |  | Cc1cccc(Nc2ccccc2C(=O)NCc2ccco2)c1C [2-(2,3-dimethylanilino)-N-(2-furanylmethyl)benzamide]
8 | > 66.7 |  | CCCc1cc(=O)n2[nH]c(C)c(-c3ccccc3)c2n1
9 | > 66.7 | > 40.3 | O=C1C(=O)N(CC2CCCO2)C(c2cccnc2)C1C(=O)c1ccco1 (centres undefined) [3-(furan-2-carbonyl)-4-hydroxy-1-(oxolan-2-ylmethyl)-2-pyridin-3-yl-2H-pyrrol-5-one]
10 | > 66.7 |  | CCOC(=O)c1sc(=S)n2c1[nH]c(=O)c1ccc(C(=O)OC)cc12 [MLS000094734]
11 | > 66.7 |  | COc1ccc(-c2cn3cccnc3n2)cc1NC(=O)C1CCCC1 [MLS000045945]
12 | 12.1 |  | COc1ccc(-c2cc(C(F)(F)F)nc(N3CCN(Cc4ccccc4)CC3)n2)cc1OC [2-(4-benzylpiperazin-1-yl)-4-(3,4-dimethoxyphenyl)-6-(trifluoromethyl)pyrimidine]
13 | > 66.7 |  | COc1ccc(-c2nnc(Nc3nc4c(OC)cccc4s3)o2)cc1 [MLS000045458]
14 | > 66.7 | > 40.3 | C=CCN1C(=O)C2(c3ccccc31)C(C(=O)c1ccc3c(c1)OCCO3)C(=O)C(=O)N2CCCOC (centres undefined) [(4'E)-1-allyl-4'-[2,3-dihydro-1,4-benzodioxin-6-yl(hydroxy)methylene]-1'-(3-methoxypropyl)spiro[indoline-3,5'-pyrrolidine]-2,2',3'-trione]
15 | > 66.7 |  | COc1ccc(NC(=O)C2C3CCC(C3)C2C(=O)O)cc1OC (centres undefined) [MLS000061524]
16 | > 66.7 |  | O=C(Cn1cnc2c(cnn2-c2ccc(F)cc2)c1=O)OCc1ccccc1 [(phenylmethyl) 2-[1-(4-fluorophenyl)-4-oxidanylidene-pyrazolo[3,4-d]pyrimidin-5-yl]ethanoate]
17 | > 66.7 |  | COc1ccc(-c2nc(-c3ccc(NC(=O)c4ccc(Br)o4)cc3)no2)cc1OC [5-bromanyl-N-[4-[5-(3,4-dimethoxyphenyl)-1,2,4-oxadiazol-3-yl]phenyl]furan-2-carboxamide]
18 | > 66.7 |  | Cc1nc2c(C#N)c(C)[nH]n2c(=O)c1Cc1ccccc1
19 | > 66.7 | > 40.3 | COc1ccccc1C1C(C(=O)c2ccccc2)C(=O)C(=O)N1CC(C)O (centres undefined) [(4Z)-4-[hydroxy(phenyl)methylene]-1-(2-hydroxypropyl)-5-(2-methoxyphenyl)pyrrolidine-2,3-quinone]

Row | IC50 [µM] | Ki [µM] | Compound
20 | > 66.7 | > 40.3 | CCCCc1c(O)n(-c2ccccc2)n(-c2ccccc2)c1=O [3,5-Dioxo-1,2-diphenyl-4-n-butylpyrazolidine]
21 | > 66.7 |  | CCCOc1ccc2c(=O)c(N3C(=O)c4ccccc4C3=O)c(C)oc2c1 [2-(2-methyl-4-oxidanylidene-7-propoxy-chromen-3-yl)isoindole-1,3-dione]
22 | > 66.7 |  | Cc1[nH]n2c(=O)c3c(nc2c1-c1ccccc1)CCC3 [SMR000082027]
23 | > 66.7 |  | CCOc1ccccc1NC(=O)CSc1nccn1-c1ccccc1 [MLS000090721]
24 | > 66.7 |  | COc1ccc(-c2cc(C(F)(F)F)nc(NC3CCCC3)n2)cc1OC [MLS000086438]
25 | > 66.7 |  | Cc1cccc(-n2nc3c(c2NC(=O)c2ccco2)CSC3)c1C [MLS000095654]
26 | > 66.7 |  | O=c1cc(N2CCc3ccccc32)[nH]c(=O)n1Cc1ccc(F)cc1 [MLS000045863]
27 | > 66.7 |  | COc1ccc(NC(=O)C(c2ccc(C)cc2)N(C)C(=O)c2cnccn2)cc1 (centres undefined) [MLS000044155]
28 | > 66.7 |  | CN1C(=O)/C(=C2\SC(=S)N(C(CCC(=O)O)C(=O)O)C2=O)c2ccccc21 (centres undefined) [SMR000054993]
29 | > 66.7 |  | Clc1ccc(Cc2nn3c(-c4ccncc4)nnc3s2)cc1 [6-(4-chlorobenzyl)-3-(4-pyridyl)-[1,2,4]triazolo[3,4-b][1,3,4]thiadiazole]
30 | > 66.7 | > 40.3 | COc1cc(C2C(C(=O)c3ccc4c(c3)CC(C)O4)C(=O)C(=O)N2CCCn2ccnc2)ccc1O (centres undefined) [(4E)-1-(3-imidazol-1-ylpropyl)-5-(3-methoxy-4-oxidanyl-phenyl)-4-[(2-methyl-2,3-dihydro-1-benzofuran-5-yl)-oxidanyl-methylidene]pyrrolidine-2,3-dione]
31 | > 66.7 | > 40.3 | CSCCC1c2c(-c3cccs3)n[nH]c2OC(=N)C1C#N (centres undefined) [6-azanyl-4-(2-methylsulfanylethyl)-3-thiophen-2-yl-2,4-dihydropyrano[2,3-c]pyrazole-5-carbonitrile]
32 | > 66.7 |  | Cc1c(CNCc2cccs2)c(C(=O)O)c(C)n1Cc1ccccc1 [1-benzyl-2,5-dimethyl-4-[(2-thenylamino)methyl]pyrrole-3-carboxylic acid]
33 | > 66.7 |  | CC1Oc2ccccc2N(Cc2ccccc2Cl)C1=O (centres undefined) [4-(2-Chloro-benzyl)-2-methyl-4H-benzo[1,4]oxazin-3-one]
34 | > 66.7 | > 40.3 | CCOc1ccc(C(=O)C2C(=O)C(=O)N(c3nc(C)c(C)s3)C2c2ccco2)cc1 (centres undefined) [(4Z)-1-(4,5-dimethyl-1,3-thiazol-2-yl)-4-[(4-ethoxyphenyl)-hydroxymethylidene]-5-(furan-2-yl)pyrrolidine-2,3-dione]
35 | > 66.7 |  | Cc1ccc(Nc2nc(C3CC3)cs2)cc1 [(4-cyclopropylthiazol-2-yl)-(p-tolyl)amine]
36 | > 66.7 |  | Cc1ccc(C)c(-n2c(CNC(=O)c3ccco3)nnc2SCC(=O)N2CCc3ccccc32)c1 [N-[[5-[2-(2,3-dihydroindol-1-yl)-2-oxoethyl]sulfanyl-4-(2,5-dimethylphenyl)-1,2,4-triazol-3-yl]methyl]furan-2-carboxamide]
37 | > 66.7 |  | CCOc1ccccc1Oc1c(C)oc2cc(OC(=O)c3ccco3)ccc2c1=O [2-furancarboxylic acid [3-(2-ethoxyphenoxy)-2-methyl-4-oxo-1-benzopyran-7-yl] ester]
38 | > 66.7 |  | Cc1ccccc1Nc1cc2ccccc2c(O)n1 [3-[(2-methylphenyl)amino]-2H-isoquinolin-1-one]

Same assay, conditions: inactive by the depositor's call

Row | IC50 [µM] | Compound
39 | 18.5 | CCOc1cc(C(=O)NCc2nnc(SCC(=O)OC)n2C)cc(OCC)c1OCC [2-[[4-methyl-5-[[(3,4,5-triethoxybenzoyl)amino]methyl]-1,2,4-triazol-3-yl]thio]acetic acid methyl ester]
40 | 22.8 | CCCC(=O)Nc1cc(-c2cn3cccnc3n2)ccc1OC [MLS000045942]

Reference: BindingDB's records for doi:10.7270/Q2DF6PMF (Nmmlsc, 2007)
